Results from PubChem BioAssay (NCI).
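Each compound was tested at five concentrations against cells in 96-well plates for 48 hours. TGI: total growth inhibition.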

How the values were obtained:
Test in all cases: inhibition of tumour cell growth, NCI panel, 48 h
[1] = test system: 786-0 renal
[2] = test system: A498 renal
[3] = test system: A549 NSCLC
[4] = test system: ACHN renal
[5] = test system: CAKI-1 renal
[6] = test system: CCRF-CEM leukemia
[7] = test system: COLO 205 colon
[8] = test system: DU-145 prostate
[9] = test system: EKVX NSCLC
[10] = test system: HCC-2998 colon
[11] = test system: HCT-116 colon
[12] = test system: HCT-15 colon
[13] = test system: HL-60(TB) leukemia
[14] = test system: HOP-62 NSCLC
[15] = test system: HOP-92 NSCLC
[16] = test system: HS 578T breast
[17] = test system: HT29 colon
[18] = test system: IGROV1 ovarian
[19] = test system: K-562 leukemia
[20] = test system: KM12 colon
[21] = test system: LOX IMVI melanoma
[22] = test system: MALME-3M melanoma
[23] = test system: MDA-MB-231 breast
[24] = test system: MDA-MB-435
[25] = test system: MDA-N
[26] = test system: MOLT-4 leukemia
[27] = test system: NCI-H226 lung
[28] = test system: NCI-H23 lung
[29] = test system: NCI-H460 lung
[30] = test system: NCI-H522 lung
[31] = test system: NCI/ADR-RES ovarian
[32] = test system: OVCAR-4 ovarian
[33] = test system: OVCAR-5 ovarian
[34] = test system: OVCAR-8 ovarian
[35] = test system: PC-3 prostate
[36] = test system: RPMI-8226 leukemia
[37] = test system: RXF 393 renal
[38] = test system: SF-268 CNS
[39] = test system: SF-295 CNS
[40] = test system: SF-539 CNS
[41] = test system: SK-MEL-2 melanoma
[42] = test system: SK-MEL-28 melanoma
[43] = test system: SK-MEL-5 melanoma
[44] = test system: SK-OV-3 ovarian
[45] = test system: SN12C renal
[46] = test system: SNB-19 CNS
[47] = test system: SNB-75 CNS
[48] = test system: SR leukemia
[49] = test system: SW-620 colon
[50] = test system: T-47D breast
[51] = test system: TK-10 renal
[52] = test system: U251 CNS
[53] = test system: UACC-257 melanoma
[54] = test system: UACC-62 melanoma
[55] = test system: UO-31 renal
[56] = test system: BT-549 breast
[57] = test system: M14 melanoma
[58] = test system: MCF7 breast
[59] = test system: OVCAR-3 ovarian

S=C1C(=Nc2ccccc2)N(C2CCCCC2)C(=NC2CCCCC2)N1c1ccccc1
TGI [1]: > 100 µM
TGI [2]: > 100 µM
TGI [3]: > 100 µM
TGI [4]: > 100 µM
TGI [5]: > 100 µM
TGI [6]: > 100 µM
TGI [7]: > 100 µM
TGI [8]: > 100 µM
TGI [9]: > 100 µM
TGI [10]: > 100 µM
TGI [11]: > 100 µM
TGI [12]: > 100 µM
TGI [13]: > 100 µM
TGI [14]: > 100 µM
TGI [15]: > 100 µM
TGI [16]: > 100 µM
TGI [17]: > 100 µM
TGI [18]: > 100 µM
TGI [19]: > 100 µM
TGI [20]: > 100 µM
TGI [21]: > 100 µM
TGI [22]: > 100 µM
TGI [23]: > 100 µM
TGI [24]: > 100 µM
TGI [25]: > 100 µM
TGI [26]: > 100 µM
TGI [27]: > 100 µM
TGI [28]: > 100 µM
TGI [29]: > 100 µM
TGI [30]: 71.8 µM
TGI [31]: > 100 µM
TGI [32]: > 100 µM
TGI [33]: > 100 µM
TGI [34]: > 100 µM
TGI [35]: > 100 µM
TGI [36]: > 100 µM
TGI [37]: > 100 µM
TGI [38]: > 100 µM
TGI [39]: > 100 µM
TGI [40]: > 100 µM
TGI [41]: > 100 µM
TGI [42]: > 100 µM
TGI [43]: > 100 µM
TGI [44]: > 100 µM
TGI [45]: > 100 µM
TGI [46]: > 100 µM
TGI [47]: > 100 µM
TGI [48]: > 100 µM
TGI [49]: > 100 µM
TGI [50]: > 100 µM
TGI [51]: > 100 µM
TGI [52]: > 100 µM
TGI [53]: > 100 µM
TGI [54]: > 100 µM
TGI [55]: > 100 µM

O=C1Nc2ccc(Cl)cc2C(=O)N2CCC[C@@H]12
TGI [1]: > 100 µM
TGI [2]: > 100 µM
TGI [3]: > 100 µM
TGI [4]: > 100 µM
TGI [56]: > 100 µM
TGI [5]: > 100 µM
TGI [7]: > 100 µM
TGI [8]: > 100 µM
TGI [9]: > 100 µM
TGI [10]: > 100 µM
TGI [11]: > 100 µM
TGI [12]: > 100 µM
TGI [14]: > 100 µM
TGI [15]: > 100 µM
TGI [17]: > 100 µM
TGI [18]: > 100 µM
TGI [19]: > 100 µM
TGI [20]: > 100 µM
TGI [21]: > 100 µM
TGI [57]: > 100 µM
TGI [22]: > 100 µM
TGI [58]: > 100 µM
TGI [23]: > 100 µM
TGI [24]: > 100 µM
TGI [25]: > 100 µM
TGI [26]: > 100 µM
TGI [27]: > 100 µM
TGI [28]: > 100 µM
TGI [29]: > 100 µM
TGI [30]: > 100 µM
TGI [31]: > 100 µM
TGI [59]: > 100 µM
TGI [32]: > 100 µM
TGI [33]: > 100 µM
TGI [34]: > 100 µM
TGI [35]: > 100 µM
TGI [36]: > 100 µM
TGI [37]: > 100 µM
TGI [38]: > 100 µM
TGI [39]: > 100 µM
TGI [41]: > 100 µM
TGI [42]: > 100 µM
TGI [43]: > 100 µM
TGI [44]: > 100 µM
TGI [45]: > 100 µM
TGI [46]: > 100 µM
TGI [47]: > 100 µM
TGI [48]: > 100 µM
TGI [49]: > 100 µM
TGI [50]: > 100 µM
TGI [51]: > 100 µM
TGI [52]: > 100 µM
TGI [53]: > 100 µM
TGI [54]: > 100 µM
TGI [55]: > 100 µM

CCOc1ccccc1N1CSc2nnc(-c3ccccc3)n2C1
TGI [1]: > 100 µM
TGI [2]: > 100 µM
TGI [3]: > 100 µM
TGI [4]: > 100 µM
TGI [56]: > 100 µM
TGI [5]: > 100 µM
TGI [6]: 49.9 µM
TGI [7]: > 100 µM
TGI [8]: > 100 µM
TGI [10]: > 100 µM
TGI [11]: > 100 µM
TGI [12]: > 100 µM
TGI [14]: > 100 µM
TGI [15]: > 100 µM
TGI [17]: > 100 µM
TGI [18]: > 100 µM
TGI [19]: > 100 µM
TGI [20]: > 100 µM
TGI [57]: > 100 µM
TGI [22]: > 100 µM
TGI [58]: > 100 µM
TGI [23]: > 100 µM
TGI [24]: > 100 µM
TGI [25]: > 100 µM
TGI [26]: > 100 µM
TGI [27]: > 100 µM
TGI [28]: > 100 µM
TGI [29]: > 100 µM
TGI [30]: > 100 µM
TGI [31]: > 100 µM
TGI [59]: > 100 µM
TGI [32]: > 100 µM
TGI [33]: > 100 µM
TGI [34]: > 100 µM
TGI [35]: > 100 µM
TGI [36]: > 100 µM
TGI [37]: > 100 µM
TGI [38]: > 100 µM
TGI [39]: > 100 µM
TGI [40]: > 100 µM
TGI [41]: > 100 µM
TGI [42]: > 100 µM
TGI [43]: > 100 µM
TGI [44]: > 100 µM
TGI [45]: > 100 µM
TGI [48]: > 100 µM
TGI [49]: > 100 µM
TGI [50]: > 100 µM
TGI [51]: > 100 µM
TGI [52]: > 100 µM
TGI [53]: > 100 µM
TGI [54]: > 100 µM
TGI [55]: > 100 µM
